Results on 51 compounds are retold here after PMC5706701, “Development of a homogenous high-throughput assay for inositol hexakisphosphate kinase 1 activity” (PLoS ONE, 2017).

In this test the target is T1, Human IP6K1 (Homo sapiens, UniProt Q92551).
T1 construct: GST (N, cleaved yes); made in house; host or cells: C43 E. coli, pGEX-6P-2
Briefly: IP6K1 high-throughput screen of the Sigma LOPAC (ADP-Glo Max, single point).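 Also: final compound concentration 10µM in 5% DMSO.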 It counts as biochemical.

Setting [1] is: LOPAC single-point screen, ADP-Glo Max luminescence raw signal per well.
[2] abbreviates: LOPAC single-point screen, Z-score relative to plate average and StDev.
The mark [3] stands for this setting: LOPAC single-point screen, ADP-Glo Max raw signal per well.
The mark [4] stands for this setting: LOPAC single-point screen, Z-score from raw signal with plate average and StDev.
[5] abbreviates: LOPAC single-point screen, Z-score against plate average and StDev.
Setting [6] is: Sigma LOPAC single-point screen, ADP-Glo Max raw signal per well.
Where [7] appears, read: Sigma LOPAC single-point screen, Z-score from plate average and StDev.
The mark [8] stands for this setting: LOPAC single-point screen, Z-score from plate average and StDev.

Counter-ions that a name gives are not always drawn. Like-named read-outs stand apart in the source and are kept apart here.

T1 sequence (Q92551 whole entry): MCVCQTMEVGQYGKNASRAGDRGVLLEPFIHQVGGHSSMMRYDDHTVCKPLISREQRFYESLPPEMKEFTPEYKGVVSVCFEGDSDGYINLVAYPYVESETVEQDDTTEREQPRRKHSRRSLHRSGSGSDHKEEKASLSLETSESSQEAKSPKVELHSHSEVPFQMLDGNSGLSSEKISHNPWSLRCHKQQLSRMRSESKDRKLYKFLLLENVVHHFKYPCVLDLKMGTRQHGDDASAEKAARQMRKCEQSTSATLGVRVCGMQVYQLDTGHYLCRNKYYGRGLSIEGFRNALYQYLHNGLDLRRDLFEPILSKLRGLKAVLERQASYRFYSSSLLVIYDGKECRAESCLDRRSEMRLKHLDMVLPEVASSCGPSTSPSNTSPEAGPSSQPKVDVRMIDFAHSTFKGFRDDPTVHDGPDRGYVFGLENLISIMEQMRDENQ

On to `O=C(O)c1cc(=O)c2c(Cl)cc(Cl)cc2[nH]1` [5,7-Dichlorokynurenic acid], for which the “Raw Signal” value under setting [1] amounted to 49912. For the same compound, the Z-score under setting [2] is listed as -1.067.

With `CN(C)c1nc(N)c(C(=O)NC(=N)N)nc1Cl` [5-(N,N-Dimethyl)amiloride hydrochloride], under setting [3], the “Raw Signal” value stood at 56769. Moreover, the Z-score under setting [4] was -0.2015.

With `N=C(N)NC(=O)c1nc(Cl)c(N2CCCCCC2)nc1N` [5-(N,N-hexamethylene)amiloride], the “Raw Signal” value under setting [3] is 56870. This compound also registered a Z-score under setting [4] of -0.1837.

As to `CCN(c1nc(N)c(C(=O)NC(=N)N)nc1Cl)C(C)C` [5-(N-Ethyl-N-isopropyl)amiloride], under setting [3], the “Raw Signal” value amounted to 57414. The Z-score under setting [5] was -0.08791. Taken in the same sequence, the figures for `CC(C)CN(C)c1nc(N)c(C(=O)N=C(N)N)nc1Cl` [5-(N-Methyl-N-isobutyl)amiloride] were 57481 and -0.0761.

Turning to `Cl.NCCCCC(=O)O` [5-Aminovaleric acid hydrochloride], the “Raw Signal” value under setting [3] was 58378. The compound also gave a Z-score under setting [5] of 0.08188.

Regarding `NCCc1c[nH]c2ccc(C(N)=O)cc12.O=C(O)/C=C\C(=O)O` [5-Carboxamidotryptamine maleate], the “Raw Signal” value under setting [1] came to 52599. In addition, the Z-score under setting [2] is recorded as -0.5215. Turning to `O=C(O)c1cc2cc(F)ccc2[nH]1` [5-Fluoroindole-2-carboxylic acid], the “Raw Signal” value came out at 61098 and the Z-score is 0.5609. Regarding `O=c1[nH]cc(F)c(=O)[nH]1` [5-Fluorouracil], the “Raw Signal” value under setting [1] was 52294. Further, the Z-score under setting [2] was -0.5835. Take `N[C@@H](Cc1c[nH]c2ccc(O)cc12)C(=O)O` [5-Hydroxy-L-tryptophan]: under setting [6], the “Raw Signal” value was found to be 60622. The same compound displayed a Z-score under setting [7] of 1.108.

As for `O=C(O)Cc1c[nH]c2ccc(O)cc12` [5-Hydroxyindolacetic acid], the “Raw Signal” value under setting [6] stood at 56978. The compound further had a Z-score under setting [7] of 0.3678.

As to `COc1ccc2[nH]cc(CCN(C)C)c2c1.O=C(O)C(=O)O` [5-Methoxy DMT oxalate], under setting [6], the “Raw Signal” value came to 59658. In addition, under setting [7], the Z-score is 0.8846. As to `Nc1ncn([C@@H]2O[C@H](CO)[C@@H](O)[C@H]2O)c(=O)n1` [5-azacytidine], the “Raw Signal” value under setting [1] was determined as 54885. For the same compound, the Z-score under setting [2] is listed as -0.5333. Turning to `C[C@H]1O[C@@H](n2cc(F)c(=O)[nH]c2=O)[C@H](O)[C@@H]1O` [5-fluoro-5-deoxyuridine], the “Raw Signal” value under setting [3] is given as 53997. For the same compound, under setting [4], the Z-score is given as -0.2376. Taken in the same sequence, the figures for `CCCCCC(O)CCCC(=O)O.[Na]` (centres unmarked) [5-hydroxydecanoic acid sodium] were 53435 and -0.3518. Regarding `C[C@]12CC[C@@H](O)C[C@@H]1CC[C@@H]1[C@@H]2CC[C@]2(C)[C@@H](O)CC[C@@H]12` [5alpha-Androstane-3alpha,17beta-diol], the “Raw Signal” value under setting [1] was found to be 54542. Moreover, the Z-score under setting [2] was -0.5937. `CC(=O)[C@H]1CC[C@H]2[C@@H]3CC[C@H]4C[C@H](O)CC[C@]4(C)[C@H]3C(=O)C[C@]12C` [5alpha-Pregnan-3alpha-ol-11,20-dione]: the “Raw Signal” value under setting [6] is on record as 56964. This compound showed a Z-score under setting [7] of 0.4319. For `CC(=O)[C@H]1CC[C@H]2[C@@H]3CC[C@H]4C[C@H](O)CC[C@]4(C)[C@H]3CC[C@]12C` [5alpha-Pregnan-3alpha-ol-20-one], the “Raw Signal” value under setting [3] is given as 55941. Under setting [5], this compound returned a Z-score of -0.01609. In the case of `O=c1[nH]c2ccccc2c2ccccc12` [6(5H)-Phenanthridinone], the “Raw Signal” value under setting [3] amounted to 55315. Under setting [4], this compound registered a Z-score of -0.1377. For the compound `Br.NC1CCc2cc(O)c(O)cc2C1` (centres unmarked) [6,7-ADTN hydrobromide], the “Raw Signal” value under setting [3] is reported as 55279. Further, under setting [5], the Z-score is reported as 0.02274.

On to `O=c1[nH]c2cc(Cl)c(Cl)cc2[nH]c1=O` [6,7-Dichloroquinoxaline-2,3-dione], for which, under setting [3], the “Raw Signal” value is listed as 56553. The Z-score under setting [5] stood at 0.2815. As for `NCCCCCC(=O)O` [6-Aminohexanoic acid], the “Raw Signal” value under setting [1] is recorded as 70191. Under setting [8], this compound gave a Z-score of 2.162. For `COc1cc2c(CCNC(C)=O)c[nH]c2cc1Cl` [6-Chloromelatonin], under setting [6], the “Raw Signal” value was 61765. Further, the Z-score under setting [7] turned out to be 0.6784.

Turning to `Cl.NCC(O)c1cc(O)c(O)cc1F` (centres unmarked) [6-Fluoronorepinephrine hydrochloride], the “Raw Signal” value under setting [1] is given as 54023. Besides, the Z-score under setting [2] was -0.6852. In the case of `COc1cc2c(CCNC(C)=O)c[nH]c2cc1O` [6-Hydroxymelatonin], the “Raw Signal” value under setting [1] was determined as 52038. Moreover, the Z-score under setting [2] is listed as -0.6355. As to `O=Nc1ccc2oc(=O)ccc2c1` [6-Nitroso-1,2-benzopyrone], the “Raw Signal” value under setting [6] is 57563. Moreover, under setting [7], the Z-score is listed as 0.5326.

With `CCCCCCCCCCC/C=C\C(C)(C)/C=C\CCCC(=O)O` [7,7-Dimethyl-(5Z,8Z)-eicosadienoic acid], under setting [3], the “Raw Signal” value is 53422. The Z-score under setting [4] is recorded as -0.3544. Taken in the same sequence, the figures for `O=C(O)c1cc(O)c2ccc(Cl)cc2n1` [7-Chlorokynurenic acid] were 53866 and -0.2642.

As for `O=[N+]([O-])c1cccc2cn[nH]c12` [7-Nitroindazole], the “Raw Signal” value under setting [3] amounted to 55532. Also, the Z-score under setting [5] was determined as 0.1913. As to `Cn1c(=O)c2c(nc(C=Cc3cccc(Cl)c3)n2C)n(C)c1=O` [8-(3-Chlorostyryl)caffeine], under setting [3], the “Raw Signal” value is given as 56359. Moreover, the Z-score under setting [5] is 0.2421.

Regarding `Cn1c(=O)c2[nH]c(-c3ccc(S(=O)(=O)O)cc3)nc2n(C)c1=O` [8-(p-Sulfophenyl)theophylline], the “Raw Signal” value under setting [3] is given as 56907. The compound further returned a Z-score under setting [4] of -0.1772. Taken in the same sequence, the figures for `Nc1nc2c(nc(Br)n2[C@@H]2O[C@@H]3COP(=O)([O-])O[C@H]3[C@H]2O)c(=O)[nH]1.[Na+]` [8-Bromo-cGMP sodium] were 55323 and -0.4562. Turning to `Cn1c(=O)c2[nH]c(C3CCCC3)nc2n(C)c1=O` [8-Cyclopentyl-1,3-dimethylxanthine], the “Raw Signal” value under setting [6] was determined as 58283. Moreover, the Z-score under setting [7] was 0.6328. Regarding `CCCn1c(=O)c2[nH]c(C3CCCC3)nc2n(CCC)c1=O` [8-Cyclopentyl-1,3-dipropylxanthine], under setting [3], the “Raw Signal” value came out at 55782. For the same compound, under setting [5], the Z-score was 0.1249.

In the case of `Nc1ncnc2c1ncn2C1CCCC1` [9-cyclopentyladenine], the “Raw Signal” value under setting [6] was 60166. The compound further had a Z-score under setting [7] of 0.3968. Take `CC1=C(/C=C/C(C)=C/C=C/C(C)=C\C(=O)O)C(C)(C)CCC1` [13-cis-retinoic acid]: the “Raw Signal” value under setting [3] is recorded as 55954. The same compound gave a Z-score under setting [5] of -0.01356. Regarding `CC(N)=NCc1cccc(CN)c1.Cl.Cl` [1400W dihydrochloride], the “Raw Signal” value under setting [3] is 55005. The compound also showed a Z-score under setting [4] of -0.1979. As to `COc1cc(C[C@@H](C)N)c(OC)cc1I.Cl` [( R)-(-)-DOI hydrochloride], the “Raw Signal” value under setting [3] came out at 54807. In addition, the Z-score under setting [5] is listed as -0.07312.

In the case of `CN1CCc2cc3c(cc2[C@H]1[C@@H]1OC(=O)c2c1ccc1c2OCO1)OCO3` [(+)-Bicuculline], under setting [1], the “Raw Signal” value amounted to 66353. Also, the Z-score under setting [8] is 1.4865. `CC(C)C[C@H]1C(=O)N2CCC[C@H]2[C@]2(O)O[C@](NC(=O)[C@@H]3C=C4c5cccc6[nH]c(Br)c(c56)C[C@H]4N(C)C3)(C(C)C)C(=O)N12.CS(=O)(=O)O` [(+)-Bromocriptine methanesulfonate]: under setting [3], the “Raw Signal” value is given as 59214. The Z-score under setting [5] stood at 0.2291. With `CN(C)CC[C@@H](c1ccc(Br)cc1)c1ccccn1` [(+)-Brompheniramine maleate], under setting [1], the “Raw Signal” value is given as 67936. Moreover, the Z-score under setting [8] is 1.765. On to `CC(C)(C)[C@]1(O)CCN2C[C@H]3c4ccccc4CCc4cccc(c43)[C@@H]2C1` [(+)-Butaclamol hydrochloride], for which the “Raw Signal” value under setting [1] is 54506. Further, the Z-score under setting [2] is -0.6001. Regarding `CN(C)CC[C@@H](c1ccc(Cl)cc1)c1ccccn1` [(+)-Chlorpheniramine maleate], the “Raw Signal” value under setting [3] worked out at 57307. In addition, the Z-score under setting [4] is listed as -0.1068.

On to `C=CCN1CC[C@]2(C)c3cc(O)ccc3C[C@H]1[C@H]2C.Cl` [(+)-N-Allylnormetazocine hydrochloride], for which, under setting [1], the “Raw Signal” value is recorded as 54138. Moreover, the Z-score under setting [2] was -0.6649.

Take `CN1CCCC1c1cccnc1.Cc1ccc(C(=O)OC(C(=O)O)C(OC(=O)c2ccc(C)cc2)C(=O)O)cc1` (stereo not drawn) [(+)-Nicotine (+)-di-p-toluoyl tartrate]: the “Raw Signal” value is recorded as 52925 and the Z-score was -0.2467. `CC[C@@H]1C(=O)OC[C@@H]1Cc1cncn1C.Cl` [(+)-Pilocarpine hydrochloride]: the “Raw Signal” value under setting [6] worked out at 57845. This compound came in with a Z-score under setting [7] of 0.5799. For `N[C@@H](Cn1oc(=O)[nH]c1=O)C(=O)O` [(+)-Quisqualic acid], in that order: 59992 and 0.7709. Turning to `C[C@@H]1OC[C@H](C[N+](C)(C)C)O1.[I-]` [(+)-cis-Dioxolane iodide], the “Raw Signal” value under setting [3] is given as 55108. The compound also came in with a Z-score under setting [5] of -0.01199. On to `C[N+]1(C)CCc2cc3c(cc2[C@H]1[C@@H]1OC(=O)c2c1ccc1c2OCO1)OCO3.[Br-]` [(-)-Bicuculline methbromide, 1(S), 9(R)], for which the “Raw Signal” value under setting [3] is 56332. For the same compound, the Z-score under setting [4] is recorded as -0.2785.

As to `CN1C(=O)CC[C@H]1c1cccnc1` [(-)-Cotinine], under setting [2], the Z-score was -0.59. On to `CN[C@@H](C)[C@H](O)c1ccccc1.CN[C@@H](C)[C@H](O)c1ccccc1.O=S(=O)(O)O` [(-)-Ephedrine hemisulfate], for which the “Raw Signal” value under setting [3] is listed as 54708. This compound also displayed a Z-score under setting [4] of -0.09323.
